Our source for the inhibition values is ChEMBL document CHEMBL1152037, “Novel peptidomimetics: inhibitors of substance P endopeptidase” (Bioorg Med Chem Lett, 1992).

Assay [1] in a line: Ability to inhibit substance P endopeptidase at concentration of 10 uM.
Assay [2] can be described thus: Ability to inhibit substance P endopeptidase at concentration of 1.5 uM.

Peptide text beside a SMILES is read from it. * marks the point of attachment. X1 = CSCC[C@H](NC(=O)[C@H](CC(C)C)NC(=O)CNC(=O)C(/C=C/[C@H](Cc1ccccc1)N*)(Cc1ccccc1)Cc1ccccc1)C(N)=O

What is called inhibition is the change of the read-out against control, counted positive when it falls. For the molecule `CSCC[C@H](NC(=O)[C@H](CC(C)C)NC(=O)CNC(=O)C(/C=C/[C@H](Cc1ccccc1)NC(=O)[C@H](CCC(N)=O)NC(=O)[C@H](CCC(N)=O)NC(=O)[C@@H]1CCCN1C(=O)[C@H](CCCCN)NC(=O)[C@@H]1CCCN1C(=O)[C@@H](N)CCCN=C(N)N)(Cc1ccccc1)Cc1ccccc1)C(N)=O` (H-RPKPQQ-X1), the inhibition in assay [1] amounted to 50%.

The molecule `N[C@H](/C=C/C(CO)(Cc1ccccc1)Cc1ccccc1)Cc1ccccc1` gave an inhibition in assay [2] of 50%.
